Reference: patent US20250195524A1, “PYRIMIDO-PYRIDAZINONE COMPOUND AS TOLL-LIKE RECEPTOR AGONIST” (SHANGHAI VISONPHARMA CO., LTD., priority 2022, published 2025)

Target: T1, human TLR8 (Homo sapiens, UniProt Q9NR97)
T1 construct: host or cells: HEK-Blue hTLR8 (HEK293-derived reporter cells)
T1 sequence (Q9NR97 27-1041): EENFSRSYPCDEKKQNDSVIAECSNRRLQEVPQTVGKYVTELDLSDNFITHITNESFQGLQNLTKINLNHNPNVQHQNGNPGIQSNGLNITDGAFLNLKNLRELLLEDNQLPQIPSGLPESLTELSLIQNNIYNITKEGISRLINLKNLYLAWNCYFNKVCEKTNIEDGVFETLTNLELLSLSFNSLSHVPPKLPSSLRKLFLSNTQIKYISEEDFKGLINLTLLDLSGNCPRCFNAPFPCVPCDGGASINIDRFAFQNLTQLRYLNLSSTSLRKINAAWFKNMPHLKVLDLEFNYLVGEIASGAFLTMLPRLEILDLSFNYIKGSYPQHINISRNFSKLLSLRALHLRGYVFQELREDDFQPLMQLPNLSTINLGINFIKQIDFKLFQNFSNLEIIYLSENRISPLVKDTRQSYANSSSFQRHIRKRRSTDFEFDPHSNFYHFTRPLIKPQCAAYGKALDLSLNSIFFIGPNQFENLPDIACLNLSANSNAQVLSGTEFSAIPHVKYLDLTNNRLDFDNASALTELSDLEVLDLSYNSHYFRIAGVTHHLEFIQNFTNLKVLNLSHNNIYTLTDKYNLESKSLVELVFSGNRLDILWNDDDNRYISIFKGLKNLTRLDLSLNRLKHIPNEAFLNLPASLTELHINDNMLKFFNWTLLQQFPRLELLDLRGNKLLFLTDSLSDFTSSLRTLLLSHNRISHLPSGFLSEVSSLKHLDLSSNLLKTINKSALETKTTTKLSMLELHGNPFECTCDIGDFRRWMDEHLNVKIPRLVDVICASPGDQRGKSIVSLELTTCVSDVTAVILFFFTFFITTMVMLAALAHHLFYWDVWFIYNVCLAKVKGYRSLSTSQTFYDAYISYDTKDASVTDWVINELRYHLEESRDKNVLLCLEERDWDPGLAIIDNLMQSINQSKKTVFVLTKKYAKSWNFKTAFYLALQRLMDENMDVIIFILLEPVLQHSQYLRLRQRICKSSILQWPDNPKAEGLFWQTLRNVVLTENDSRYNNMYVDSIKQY
Assay: HEK-Blue hTLR8 SEAP reporter gene agonism assay
Type: cell-based
Conditions: HEK-Blue hTLR8 cells, SEAP (Quanti-blue, 650 nm), 16-22 hours incubation
Procedure: The agonistic activity of the compounds of the present invention on TLR7 or TLR8 was evaluated using HEK-Blue™ cells stably expressing human TLR7 or TLR8. And the agonistic activity was assayed using their ability to induce the SEAP reporter gene under the control of the IFN-β minimal promoter fused to five NF-κB and ap-1 binding sites, specifically as follows:
HEK-Blue™ hTLR7 (Invivogen, 80,000 cells per well) or HEK-Blue™ hTLR8 (Invivogen, 60,000 cells per well) was added to a 96-well cell culture plate, the compound to be tested is added whereafter, and the final concentration of the compound(s) to be tested in the medium ranged from 0.001 to 36 μM, then incubated for 16-22 hours. SEAP levels in the cell culture medium were detected using HEK-Blue assay reagent Quanti-blue (Invivogen) according to the manufacturer's instructions. Neo2 Multifunctional Enzyme Labeler (Bio-tek) was used to determine the light absorption at 650 nm. GraphPad Prism was utilized to calculate the EC50, which is the half effective concentration of the drug.

EC50 [nM]	Compound
107	CCCC(C)Nc1nc(N)nc2cnn(Cc3ccc(CN4CCCC4)cc3)c(=O)c12 (centres unmarked) [Compound I-1, 2-amino-4-(pentan-2-ylamino)-6-(4-(pyrrolidin-1-ylmethyl)benzyl)pyrimido[4,5-d]pyridazin-5(6H)-one]
102	CCCCNc1nc(N)nc2cnn(Cc3ccc(C(=O)N4CCNCC4)cc3)c(=O)c12 [Compound I-2, 2-amino-4-(butylamino)-6-(4-(piperazine-1-carbonyl)benzyl)pyrimido[4,5-d]pyridazin-5(6H)-one]
615	CCCCNc1nc(N)nc2cnn(Cc3ccc(C(=O)N4CCN(C)CC4)cc3)c(=O)c12 [Compound I-3, 2-amino-4-(butylamino)-6-(4-(4-methylpiperazine-1-carbonyl)benzyl)pyrimido[4,5-d]pyridazin-5(6H)-one]
403	COCCNc1nc(N)nc2cnn(Cc3ccc(CN4CCCC4)cc3)c(=O)c12 [Compound I-4, 2-amino-4-((2-methoxyethyl)amino)-6-(4-(pyrrolidin-1-ylmethyl)benzyl)pyrimido[4,5-d]pyridazin-5(6H)-one]
149	CCCCNc1nc(N)nc2cnn(Cc3ccc(CN4CCCC4)cc3)c(=O)c12 [Compound I-5, 2-amino-4-(butylamino)-6-(4-(pyrrolidin-1-ylmethyl)benzyl)pyrimido[4,5-d]pyridazin-5(6H)-one]
153	CCCCNc1nc(N)nc2cnn(Cc3ccc(CN(C)C)cc3)c(=O)c12 [Compound I-7, 2-amino-4-(butylamino)-6-(4-((dimethylamino)methyl)benzyl)pyrimido[4,5-d]pyridazin-5(6H)-one]
229	CCCCNc1nc(N)nc2cnn(Cc3ccc4c(c3)CCNC4)c(=O)c12 [Compound I-8, 2-amino-4-(butylamino)-6-((1,2,3,4-tetrahydroisoquinolin-6-yl)methyl)pyrimido[4,5-d]pyridazin-5(6H)-one]
183	CCCCNc1nc(N)nc2cnn(Cc3ccc(CN4CCNCC4)cc3)c(=O)c12 [Compound I-9, 2-amino-4-(butylamino)-6-(4-(piperazin-1-ylmethyl)benzyl)pyrimido[4,5-d]pyridazin-5(6H)-one]
569	CCCCNc1nc(N)nc2cnn(Cc3ccc(CNC4CC4)cc3)c(=O)c12 [Compound I-10, 2-amino-4-(butylamino)-6-(4-((cyclopropylamino)methyl)benzyl)pyrimido[4,5-d]pyridazin-5(6H)-one]
267	CCCCNc1nc(N)nc2cnn(Cc3ccc(CN4CC5CC(C4)N5)cc3)c(=O)c12 [Compound I-11, 6-(4-((3,6-Diazabicyclo[3.1.1]heptan-3-yl)methyl)benzyl)-2-amino-4-(butylamino)pyrimido[4,5-d]pyridazin-5(6H)-one]
185	CCCCNc1nc(N)nc2cnn(Cc3ccc(CN4CCC5(CNC5)C4)cc3)c(=O)c12 [Compound I-12, 6-(4-((2,6-Diazaspiro[3.4]octan-6-yl)methyl)benzyl)-2-amino-4-(butylamino)pyrimido[4,5-d]pyridazin-5(6H)-one]
549	CCCCNc1nc(N)nc2cnn(Cc3ccc4c(c3)CCN(C(C)C)C4)c(=O)c12 [Compound I-13, 2-amino-4-(butylamino)-6-((2-isopropyl-1,2,3,4-tetrahydroisoquinolin-6-yl)methyl)pyrimido[4,5-d]pyridazin-5(6H)-one]
365	CCCCNc1nc(N)nc2cnn(Cc3ccc(CN4CCCC4)cc3OC)c(=O)c12 [Compound I-14, 2-amino-4-(butylamino)-6-(2-methoxy-4-(pyrrolidin-1-ylmethyl)benzyl)pyrimido[4,5-d]pyridazin-5(6H)-one]
326	CCCCNc1nc(N)nc2cnn(Cc3ccc(CN4CCCC4)cc3F)c(=O)c12 [Compound I-15, 2-amino-4-(butylamino)-6-(2-fluoro-4-(pyrrolidin-1-ylmethyl)benzyl)pyrimido[4,5-d]pyridazin-5(6H)-one]
354	CCCCNc1nc(N)nc2cnn(Cc3ccc(CN4CCCC4)nc3OC)c(=O)c12 [Compound I-16, 2-amino-4-(butylamino)-6-((2-methoxy-6-(pyrrolidin-1-ylmethyl)pyridin-3-yl)methyl)pyrimido[4,5-d]pyridazin-5(6H)-one]
368	CCCCNc1nc(N)nc2cnn(Cc3ccc(CN4CCCC4)c(OC)c3)c(=O)c12 [Compound I-17, 2-amino-4-(butylamino)-6-(3-methoxy-4-(pyrrolidin-1-ylmethyl)benzyl)pyrimido[4,5-d]pyridazin-5(6H)-one]
218	CCCCNc1nc(N)nc2cnn(Cc3ccc(CN4CCCC4)c(F)c3)c(=O)c12 [Compound I-18, 2-amino-4-(butylamino)-6-(3-fluoro-4-(pyrrolidin-1-ylmethyl)benzyl)pyrimido[4,5-d]pyridazin-5(6H)-one]
388	CCCCNc1nc(N)nc2cnn(Cc3ccc(CN(CCC)CCO)cc3)c(=O)c12 [Compound I-21]
222	CCCCNc1nc(N)nc2cnn(Cc3ccc(CN(CCO)CCO)cc3)c(=O)c12 [Compound I-23, 2-amino-6-(4-((bis(2-hydroxyethyl)amino)methyl)benzyl)-4-(butylamino)pyrimido[4,5-d]pyridazin-5(6H)-one]
322	CCC[C@@H](C)Nc1nc(N)nc2cnn(Cc3ccc(CN(CCC)CCO)cc3)c(=O)c12 [Compound I-26]
286	CCC[C@@H](C)Nc1nc(N)nc2cnn(Cc3ccc(CN(CCO)CCO)cc3)c(=O)c12 [Compound I-27, (R)-2-amino-6-(4-((bis(2-hydroxyethyl)amino)methyl)benzyl)-4-(pentan-2-ylamino)pyrimido[4,5-d]pyridazin-5(6H)-one]
101	CCC[C@@H](C)Nc1nc(N)nc2cnn(Cc3ccc(CN4CC5(COC5)C4)cc3)c(=O)c12 [Compound I-41, (R)-6-(4-((2-oxo-6-azaspiro[3.3]heptan-6-yl)methyl)benzyl)-2-amino-4-(pentan-2-ylamino)pyrimido[4,5-d]pyridazin-5(6H)-one]
74	CCC[C@@H](C)Nc1nc(N)nc2cnn(Cc3ccc(CNCCO)cc3)c(=O)c12 [Compound I-42]
233	CCC[C@@H](C)Nc1nc(N)nc2cnn(Cc3ccc(CN4CC5(COC5)C4)cc3OC)c(=O)c12 [Compound I-43, (R)-6-(4-((2-oxo-6-azaspiro[3.3]heptan-6-yl)methyl)-2-methoxybenzyl)-2-amino-4-(pentan-2-ylamino)pyrimido[4,5-d]pyridazin-5(6H)-one]
112	CCC[C@@H](C)Nc1nc(N)nc2cnn(Cc3ccc(CNCCO)cc3OC)c(=O)c12 [Compound I-44]
169	CCC[C@@H](C)Nc1nc(N)nc2cnn(Cc3ccc(C4CCNCC4)cc3)c(=O)c12 [Compound I-55, (R)-2-amino-4-(pentan-2-ylamino)-6-(4-(piperidin-4-yl)benzyl)pyrimido[4,5-d]pyridazin-5(6H)-one]
70	CCC[C@@H](C)Nc1nc(N)nc2cnn(Cc3ccc(C(=O)N4CCNCC4)cc3)c(=O)c12 [Compound I-56, (R)-2-amino-4-(pentan-2-ylamino)-6-(4-(piperazine-1-carbonyl)benzyl)pyrimido[4,5-d]pyridazin-5(6H)-one]
73	CCC[C@@H](CO)Nc1nc(N)nc2cnn(Cc3ccc(C(=O)N4CCNCC4)cc3)c(=O)c12 [Compound I-58, (S)-2-amino-4-((1-hydroxypentan-2-yl)amino)-6-(4-(piperazine-1-carbonyl)benzyl)pyrimido[4,5-d]pyridazin-5(6H)-one]
9	CCC[C@@H](CO)Nc1nc(N)nc2cnn(Cc3ccc(CN4CCCC4)cc3)c(=O)c12 [Compound I-59, (S)-2-amino-4-((1-hydroxypentan-2-yl)amino)-6-(4-(pyrrolidin-1-ylmethyl)benzyl)pyrimido[4,5-d]pyridazin-5(6H)-one]
